Read-outs that look alike come from different tables or passages of the source.
Tests used:
[1] = system: P. falciparum male gametocytes; test: P. falciparum Dual Gamete Formation Assay (PfDGFA), male readout (exflagellation); type: cell-based, Plasmodium falciparum NF54
How it was run: (§1)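 NF54 mature gametocytes (d14), cpd 24 h 37°C hypoxic gas; trigger: xanthurenic acid ookinete medium + Cy3 anti-Pfs25, 4°C 4 min → 28°C 4 min. Male: exflagellation centres, brightfield x6. Female: Pfs25+ gametes, fluorescence, +24 h 28°C dark.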

[2] = system: P. falciparum female gametocytes; test: P. falciparum Dual Gamete Formation Assay (PfDGFA), female readout (Pfs25-positive female gametes); type: cell-based, Plasmodium falciparum NF54
How it was run: as §1

[3] = PfDGFA at 2µM, 24h preincubation with gametocytes prior to induction of gametogenesis, replicate R1
[4] = PfDGFA at 2µM, 24h preincubation with gametocytes prior to induction of gametogenesis, replicate R3
[5] = PfDGFA at 2µM, 24h preincubation with gametocytes prior to induction of gametogenesis, replicate R4
[6] = PfDGFA at 2µM, 24h preincubation, average of replicates
[7] = 2µM, 24h preincubation with gametocytes prior to induction of gametogenesis, average of replicates
[8] = 2µM, 24h preincubation with gametocytes prior to induction of gametogenesis, replicate R1
[9] = 2µM, 24h preincubation with gametocytes prior to induction of gametogenesis, replicate R3
[10] = 2µM, 24h preincubation with gametocytes prior to induction of gametogenesis, replicate R4
[11] = 2µM, 24h preincubation, number of replicates with >50% inhibition in the male readout
[12] = 2µM, 24h preincubation, number of replicates with >50% inhibition in the female readout
[13] = PfDGFA at 2µM, 24h preincubation with gametocytes, average of replicates
[14] = PfDGFA at 2µM, 24h preincubation with gametocytes, replicate R1
[15] = PfDGFA at 2µM, 24h preincubation with gametocytes, replicate R3
[16] = PfDGFA at 2µM, 24h preincubation with gametocytes, replicate R4

Compound: CS(=O)(=O)CCNCc1ccc(-c2ccc3c(Nc4ccc(Cl)cc4F)ccnc3c2)o1 [TCMDC-138445]
- % inhibition male (individual replicates) R1 [1, 3]: -15.4%
- % inhibition male (individual replicates) R3 [1, 4]: 14.3%
- % inhibition male (individual replicates) R4 [1, 5]: -10.6%
- Average inhibition male (%) [1, 6]: -2.9%
- % inhibition female (individual replicates) R1 [2, 3]: 4.7%
- % inhibition female (individual replicates) R3 [2, 4]: -15.0%
- % inhibition female (individual replicates) R4 [2, 5]: 12.7%
- Average inhibition female (%) [2, 6]: -1.7%

Compound: CN(C)CCN(C)Cc1ccc(-c2ccc3c(Nc4ccc(F)cc4Cl)ccnc3c2)o1 [TCMDC-138447]
- Average inhibition male (%) [1, 7]: 33.6%
- % inhibition male (individual replicates) R1 [1, 8]: 23.0%
- % inhibition male (individual replicates) R3 [1, 9]: -2.6%
- % inhibition male (individual replicates) R4 [1, 10]: 53.6%
- HitlevelM [1, 11]: 2
- Average inhibition female (%) [2, 7]: 19.6%
- % inhibition female (individual replicates) R1 [2, 8]: 22.4%
- % inhibition female (individual replicates) R3 [2, 9]: -11.7%
- % inhibition female (individual replicates) R4 [2, 10]: 48.1%
- HitlevelF [2, 12]: 0

Compound: c1ccc(Oc2ccc(Nc3ccnc4cc(-c5cccc(CNCCN6CCOCC6)c5)ccc34)cc2)cc1 [TCMDC-138474]
- Average inhibition male (%) [1, 7]: 19.3%
- % inhibition male (individual replicates) R1 [1, 8]: 25.4%
- % inhibition male (individual replicates) R3 [1, 9]: -12.1%
- % inhibition male (individual replicates) R4 [1, 10]: 25.6%
- HitlevelM [1, 11]: 0
- Average inhibition female (%) [2, 7]: 29.1%
- % inhibition female (individual replicates) R1 [2, 8]: 38.4%
- % inhibition female (individual replicates) R3 [2, 9]: 13.4%
- % inhibition female (individual replicates) R4 [2, 10]: 18.2%
- HitlevelF [2, 12]: 0

Compound: CN1CCN(Cc2cccc(-c3ccc4c(Nc5ccc(Oc6ccccc6)cc5)ccnc4c3)c2)CC1 [TCMDC-138476]
- Average inhibition male (%) [1, 7]: -8.7%
- % inhibition male (individual replicates) R1 [1, 8]: -12.6%
- % inhibition male (individual replicates) R3 [1, 9]: -7.4%
- % inhibition male (individual replicates) R4 [1, 10]: -11.7%
- HitlevelM [1, 11]: 0
- Average inhibition female (%) [2, 7]: 18.5%
- % inhibition female (individual replicates) R1 [2, 8]: 35.6%
- % inhibition female (individual replicates) R3 [2, 9]: -5.5%
- % inhibition female (individual replicates) R4 [2, 10]: 24.1%
- HitlevelF [2, 12]: 0

Compound: O=C(Cc1cccc(O)c1)NCC(Cc1ccc(O)cc1)c1ccccc1 (stereo not shown) [TCMDC-138482]
- Selectivity Ratio M ([1]; HepG2 Tox50 versus male IC50): 58.17
- inhibition at 2 µM ([1]; Plasmodium falciparum, 2µM, 24h preincubation with gametocytes, average of replicates, read-out: Average inhibition male (%)): 97.3%
- inhibition at 2 µM ([1]; Plasmodium falciparum, 2µM, 24h preincubation with gametocytes, replicate R1, read-out: % inhibition male (individual replicates) R1): 97.5%
- inhibition at 2 µM ([1]; Plasmodium falciparum, 2µM, 24h preincubation with gametocytes, replicate R2, read-out: % inhibition male (individual replicates) R2): 95.7%
- inhibition at 2 µM ([1]; Plasmodium falciparum, 2µM, 24h preincubation with gametocytes, replicate R3, read-out: % inhibition male (individual replicates) R3): 95.7%
- inhibition at 2 µM ([1]; Plasmodium falciparum, 2µM, 24h preincubation with gametocytes, replicate R4, read-out: % inhibition male (individual replicates) R4): 100%
- IC50 ([1]; Plasmodium falciparum, PfDGFA, 24 h incubation with gametocytes before induction, exflagellation readout, read-out: Male IC50): 1.72 µM
- Selectivity ratio F ([2]; HepG2 Tox50 versus female IC50): 10
- inhibition at 2 µM ([2]; Plasmodium falciparum, 2µM, 24h preincubation with gametocytes, average of replicates, read-out: Average inhibition female (%)): 28.1%
- inhibition at 2 µM ([2]; Plasmodium falciparum, 2µM, 24h preincubation with gametocytes, replicate R1, read-out: % inhibition female (individual replicates) R1): 32.7%
- inhibition at 2 µM ([2]; Plasmodium falciparum, 2µM, 24h preincubation with gametocytes, replicate R2, read-out: % inhibition female (individual replicates) R2): 38.2%
- inhibition at 2 µM ([2]; Plasmodium falciparum, 2µM, 24h preincubation with gametocytes, replicate R3, read-out: % inhibition female (individual replicates) R3): 28.5%
- inhibition at 2 µM ([2]; Plasmodium falciparum, 2µM, 24h preincubation with gametocytes, replicate R4, read-out: % inhibition female (individual replicates) R4): 13.2%
- IC50 ([2]; Plasmodium falciparum, PfDGFA, 24 h incubation with gametocytes before induction, female gamete readout, read-out: Female IC50): > 10 µM

Compound: COc1cc2nc(N3CCC(CCCC4CCNCC4)CC3)nc(NCc3ccccn3)c2cc1OC.O=C(O)C(F)(F)F [TCMDC-138494]
- Average inhibition male (%) [1, 13]: 68.1%
- % inhibition male (individual replicates) R1 [1, 14]: 83.7%
- % inhibition male (individual replicates) R3 [1, 15]: 75.6%
- % inhibition male (individual replicates) R4 [1, 16]: 100.2%
- HitlevelM ([1]; number of replicates with >50% inhibition in the male readout, 2µM): 3
- Average inhibition female (%) [2, 13]: 59.5%
- % inhibition female (individual replicates) R1 [2, 14]: 47.2%
- % inhibition female (individual replicates) R3 [2, 15]: 73.7%
- % inhibition female (individual replicates) R4 [2, 16]: 83.6%
- HitlevelF ([2]; number of replicates with >50% inhibition in the female readout, 2µM): 2

Compound: COc1ccc(Cn2c(Nc3cccc(C(F)(F)F)c3)nc3ccc(C(=O)NCCN4CCCC4)cc32)cc1Cl [TCMDC-138531]
- Average inhibition male (%) [1, 7]: -2.0%
- % inhibition male (individual replicates) R1 [1, 8]: 6.1%
- % inhibition male (individual replicates) R3 [1, 9]: 3.4%
- % inhibition male (individual replicates) R4 [1, 10]: -8.5%
- HitlevelM ([1]; 2µM, 24h preincubation, hits selected on >50% inhibition in the male readout across replicates): 0
- Activity ([1]; PfDGFA at 2µM, 24h preincubation, hit = >50% inhibition in male or female readout in at least 3 replicates, 0 = no class assigned): 0
- Average inhibition female (%) [2, 7]: 9.2%
- % inhibition female (individual replicates) R1 [2, 8]: 9.3%
- % inhibition female (individual replicates) R3 [2, 9]: -11.0%
- % inhibition female (individual replicates) R4 [2, 10]: 18.4%
- HitlevelF ([2]; 2µM, 24h preincubation, hits selected on >50% inhibition in the female readout across replicates): 0
